Source: PMC9228592, “Dichloroacetyl Amides of 3,5-Bis(benzylidene)-4-piperidones Displaying Greater Toxicity to Neoplasms than to Non-Malignant Cells” (Medicines, 2022)

tested on: HSC-4 squamous cell carcinoma cells; test: Cytotoxicity (MTT, 48 h) against HSC-4 cells; type: cell-based, human; conditions: 48 h, MTT, mean ± S.D. of triplicate
Excerpt: (§1) The target cells used in our study were human oral squamous cell carcinoma cell lines Ca9-22 (purchased from RIKEN Cell Bank, Tukuba, RCB-1976), HSC-2 (RCB1945), HSC-3 (RCB1975), HSC-4 (RCB1902), and three human normal oral cells, gingival fibroblast (HGF), periodontal ligament fibroblast (HPLF), and pulp cells (HPC) [established from the first premolar extracted tooth in the lower jaw (because of dysfunctional position or orthodontic treatment) and periodontal tissues of a child, according to the guideline of the Institutional Board of Meikai University Ethics Committee (No. A0808)], after obtaining informed consent from the patients. These cells were incubated for 48 h with the indicated concentrations of test samples or reference compounds sodium dichloroacetate (purchased from Sigma-Aldrich Chemical Company, Saint Louis, MO, USA), 5-fluorouracil (5-FU) from Kyowa (Tokyo, Japan), and doxorubicin (DXR) (St. Louis, MO, USA) and vehicle (DMSO) (0.008, 0.016, 0.031, 0.063, 0.125, 0.25, 0.5, and 1%) in Dulbecco’s Modified Eagle Medium (DMEM) media, which was supplemented with 10% heat-inactivated fetal bovine serum. Cell viability was determined by the MTT method. Cytotoxicity caused by the vehicle (DMSO) was subtracted.
(§2) SI was calculated by dividing the average CC50 value (concentration of the compound to kill 50% of the cells) of the compound towards HGF, HPLF, and HPC cells by the CC50 value of the compound against a specific neoplastic cell line.

Structure (SMILES) | CC50
O=C1C(=Cc2ccccc2)CN(C(=O)C(Cl)Cl)CC1=Cc1ccccc1 [Compound 1a] | 0.59 ± 0.12 µM
O=C1C(=Cc2ccc(F)cc2)CN(C(=O)C(Cl)Cl)CC1=Cc1ccc(F)cc1 [Compound 1b] | 0.33 ± 0.07 µM
O=C1C(=Cc2ccc(F)c(F)c2)CN(C(=O)C(Cl)Cl)CC1=Cc1ccc(F)c(F)c1 [Compound 1c] | 0.2 ± 0.01 µM

same assay, conditions: average CC50 towards HGF, HPLF, HPC divided by CC50 against HSC-4

Structure (SMILES) | SI (HSC-4)
O=C1C(=Cc2ccccc2)CN(C(=O)C(Cl)Cl)CC1=Cc1ccccc1 [Compound 1a] | 6.86
O=C1C(=Cc2ccc(F)cc2)CN(C(=O)C(Cl)Cl)CC1=Cc1ccc(F)cc1 [Compound 1b] | 6.61
O=C1C(=Cc2ccc(F)c(F)c2)CN(C(=O)C(Cl)Cl)CC1=Cc1ccc(F)c(F)c1 [Compound 1c] | 9.00

tested on: periodontal ligament fibroblast (HPLF); test: Cytotoxicity (MTT, 48 h) against HPLF non-malignant cells; type: cell-based, human; conditions: mean ± S.D. of triplicate
Excerpt: as §1

Structure (SMILES) | CC50
O=C1C(=Cc2ccccc2)CN(C(=O)C(Cl)Cl)CC1=Cc1ccccc1 [Compound 1a] | 3.37 ± 0.42 µM
O=C1C(=Cc2ccc(F)cc2)CN(C(=O)C(Cl)Cl)CC1=Cc1ccc(F)cc1 [Compound 1b] | 2.26 ± 0.11 µM
O=C1C(=Cc2ccc(F)c(F)c2)CN(C(=O)C(Cl)Cl)CC1=Cc1ccc(F)c(F)c1 [Compound 1c] | 1.91 ± 0.08 µM

tested on: Ca9-22 squamous cell carcinoma cells; test: Cytotoxicity (MTT, 48 h) against Ca9-22 cells; type: cell-based, human; conditions: 48 h, MTT, mean ± S.D. of triplicate
Excerpt: as §1, §2

Structure (SMILES) | CC50
O=C1C(=Cc2ccccc2)CN(C(=O)C(Cl)Cl)CC1=Cc1ccccc1 [Compound 1a] | 0.42 ± 0.04 µM
O=C1C(=Cc2ccc(F)cc2)CN(C(=O)C(Cl)Cl)CC1=Cc1ccc(F)cc1 [Compound 1b] | 0.11 ± 0.01 µM
O=C1C(=Cc2ccc(F)c(F)c2)CN(C(=O)C(Cl)Cl)CC1=Cc1ccc(F)c(F)c1 [Compound 1c] | 0.09 ± 0.02 µM

same assay, conditions: average CC50 towards HGF, HPLF, HPC divided by CC50 against Ca9-22

Structure (SMILES) | SI (Ca9-22)
O=C1C(=Cc2ccccc2)CN(C(=O)C(Cl)Cl)CC1=Cc1ccccc1 [Compound 1a] | 9.64
O=C1C(=Cc2ccc(F)cc2)CN(C(=O)C(Cl)Cl)CC1=Cc1ccc(F)cc1 [Compound 1b] | 19.8
O=C1C(=Cc2ccc(F)c(F)c2)CN(C(=O)C(Cl)Cl)CC1=Cc1ccc(F)c(F)c1 [Compound 1c] | 20.0

tested on: pulp cells (HPC); test: Cytotoxicity (MTT, 48 h) against HPC non-malignant cells; type: cell-based, human; conditions: mean ± S.D. of triplicate
Excerpt: as §1

Structure (SMILES) | CC50
O=C1C(=Cc2ccccc2)CN(C(=O)C(Cl)Cl)CC1=Cc1ccccc1 [Compound 1a] | 2.88 ± 0.08 µM
O=C1C(=Cc2ccc(F)cc2)CN(C(=O)C(Cl)Cl)CC1=Cc1ccc(F)cc1 [Compound 1b] | 1.3 ± 0.16 µM
O=C1C(=Cc2ccc(F)c(F)c2)CN(C(=O)C(Cl)Cl)CC1=Cc1ccc(F)c(F)c1 [Compound 1c] | 1.28 ± 0.37 µM

tested on: HSC-3 squamous cell carcinoma cells; test: Cytotoxicity (MTT, 48 h) against HSC-3 cells; type: cell-based, human; conditions: 48 h, MTT, mean ± S.D. of triplicate
Excerpt: as §1, §2

Structure (SMILES) | CC50
O=C1C(=Cc2ccccc2)CN(C(=O)C(Cl)Cl)CC1=Cc1ccccc1 [Compound 1a] | 1.29 ± 0.07 µM
O=C1C(=Cc2ccc(F)cc2)CN(C(=O)C(Cl)Cl)CC1=Cc1ccc(F)cc1 [Compound 1b] | 0.44 ± 0.02 µM
O=C1C(=Cc2ccc(F)c(F)c2)CN(C(=O)C(Cl)Cl)CC1=Cc1ccc(F)c(F)c1 [Compound 1c] | 0.35 ± 0.02 µM

same assay, conditions: average CC50 towards HGF, HPLF, HPC divided by CC50 against HSC-3

Structure (SMILES) | SI (HSC-3)
O=C1C(=Cc2ccccc2)CN(C(=O)C(Cl)Cl)CC1=Cc1ccccc1 [Compound 1a] | 3.14
O=C1C(=Cc2ccc(F)cc2)CN(C(=O)C(Cl)Cl)CC1=Cc1ccc(F)cc1 [Compound 1b] | 4.96
O=C1C(=Cc2ccc(F)c(F)c2)CN(C(=O)C(Cl)Cl)CC1=Cc1ccc(F)c(F)c1 [Compound 1c] | 5.14

tested on: gingival fibroblast (HGF); test: Cytotoxicity (MTT, 48 h) against HGF non-malignant cells; type: cell-based, human; conditions: mean ± S.D. of triplicate
Excerpt: as §1

Structure (SMILES) | CC50
O=C1C(=Cc2ccccc2)CN(C(=O)C(Cl)Cl)CC1=Cc1ccccc1 [Compound 1a] | 5.9 ± 0.1 µM
O=C1C(=Cc2ccc(F)cc2)CN(C(=O)C(Cl)Cl)CC1=Cc1ccc(F)cc1 [Compound 1b] | 2.97 ± 0.46 µM
O=C1C(=Cc2ccc(F)c(F)c2)CN(C(=O)C(Cl)Cl)CC1=Cc1ccc(F)c(F)c1 [Compound 1c] | 2.21 ± 0.11 µM

tested on: HGF, HPLF, and HPC cells; test: Average cytotoxicity over the three non-malignant cells; type: cell-based, human; conditions: not given
Excerpt: as §1

Structure (SMILES) | CC50
O=C1C(=Cc2ccccc2)CN(C(=O)C(Cl)Cl)CC1=Cc1ccccc1 [Compound 1a] | 4.05 µM
O=C1C(=Cc2ccc(F)cc2)CN(C(=O)C(Cl)Cl)CC1=Cc1ccc(F)cc1 [Compound 1b] | 2.18 µM
O=C1C(=Cc2ccc(F)c(F)c2)CN(C(=O)C(Cl)Cl)CC1=Cc1ccc(F)c(F)c1 [Compound 1c] | 1.8 µM

tested on: Ca9-22, HSC-2, HSC-3, and HSC-4 cells; test: Average cytotoxicity, selectivity and PSE over the four carcinoma lines; type: cell-based, human; conditions: average of SI over Ca9-22, HSC-2, HSC-3, HSC-4
Excerpt: as §1, §2
PSE reflects both the potencies and differences in cytotoxicity to neoplasms and non-malignant cells. This value was the product of the reciprocal of the average CC50 value of the compounds towards Ca9-22, HSC-2, HSC-3, and HSC-4 cells and the average SI value × 100.

Structure (SMILES) | Average SI
O=C1C(=Cc2ccccc2)CN(C(=O)C(Cl)Cl)CC1=Cc1ccccc1 [Compound 1a] | 6.42
O=C1C(=Cc2ccc(F)cc2)CN(C(=O)C(Cl)Cl)CC1=Cc1ccc(F)cc1 [Compound 1b] | 10.0
O=C1C(=Cc2ccc(F)c(F)c2)CN(C(=O)C(Cl)Cl)CC1=Cc1ccc(F)c(F)c1 [Compound 1c] | 10.8

same assay, conditions: average over Ca9-22, HSC-2, HSC-3, HSC-4

Structure (SMILES) | CC50
O=C1C(=Cc2ccccc2)CN(C(=O)C(Cl)Cl)CC1=Cc1ccccc1 [Compound 1a] | 0.74 µM
O=C1C(=Cc2ccc(F)cc2)CN(C(=O)C(Cl)Cl)CC1=Cc1ccc(F)cc1 [Compound 1b] | 0.28 µM
O=C1C(=Cc2ccc(F)c(F)c2)CN(C(=O)C(Cl)Cl)CC1=Cc1ccc(F)c(F)c1 [Compound 1c] | 0.21 µM

tested on: HSC-2 squamous cell carcinoma cells; test: Cytotoxicity (MTT, 48 h) against HSC-2 cells; type: cell-based, human; conditions: 48 h, MTT, mean ± S.D. of triplicate
Excerpt: as §1, §2

Structure (SMILES) | CC50
O=C1C(=Cc2ccccc2)CN(C(=O)C(Cl)Cl)CC1=Cc1ccccc1 [Compound 1a] | 0.67 ± 0.06 µM
O=C1C(=Cc2ccc(F)cc2)CN(C(=O)C(Cl)Cl)CC1=Cc1ccc(F)cc1 [Compound 1b] | 0.25 ± 0.02 µM
O=C1C(=Cc2ccc(F)c(F)c2)CN(C(=O)C(Cl)Cl)CC1=Cc1ccc(F)c(F)c1 [Compound 1c] | 0.2 ± 0.02 µM

same assay, conditions: average CC50 towards HGF, HPLF, HPC divided by CC50 against HSC-2

Structure (SMILES) | SI (HSC-2)
O=C1C(=Cc2ccccc2)CN(C(=O)C(Cl)Cl)CC1=Cc1ccccc1 [Compound 1a] | 6.05
O=C1C(=Cc2ccc(F)cc2)CN(C(=O)C(Cl)Cl)CC1=Cc1ccc(F)cc1 [Compound 1b] | 8.72
O=C1C(=Cc2ccc(F)c(F)c2)CN(C(=O)C(Cl)Cl)CC1=Cc1ccc(F)c(F)c1 [Compound 1c] | 9.00
